Experimental data taken from patent publication US6737383B1, “Herbicidal oxadiazolidines” (priority 1999, dated 2004).

Legend:
[1] = tested on: bedstraw; assay: Test B pre/postemergence bedstraw; format: in vivo, Galium aparine
Method in brief: (§1)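 Response is a visual 0-to-10 score relative to untreated plants, where 0 means no effect and 10 means complete control, taken twelve to sixteen days after application. Treatments went onto soil at planting and onto foliage of 1- to 4-leaf plants, using a surfactant-containing non-phytotoxic solvent.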

[2] = tested on: blackgrass; assay: Test B pre/postemergence blackgrass; format: in vivo, Alopecurus myosuroides
Method in brief: as §1

[3] = tested on: surinam grass; assay: Test B pre/postemergence surinam grass; format: in vivo, Brachiaria decumbens
Method in brief: as §1

[4] = tested on: cocklebur; assay: Test B pre/postemergence cocklebur; format: in vivo, Xanthium strumarium
Method in brief: as §1

[5] = tested on: corn; assay: Test B pre/postemergence corn; format: in vivo, Zea mays
Method in brief: as §1

[6] = tested on: crabgrass; assay: Test B pre/postemergence crabgrass; format: in vivo, Digitaria sanguinalis
Method in brief: as §1

[7] = tested on: giant foxtail; assay: Test B pre/postemergence giant foxtail; format: in vivo, Setaria faberii
Method in brief: as §1

[8] = tested on: morningglory; assay: Test B pre/postemergence morningglory; format: in vivo, Ipomoea hederacea
Method in brief: as §1

[9] = tested on: pigweed; assay: Test B pre/postemergence pigweed; format: in vivo, Amaranthus retroflexus; details: for Plant response rating, Redroot pigweed: Postemergence
Method in brief: as §1

[10] = tested on: rape; assay: Test B pre/postemergence rape; format: in vivo, Brassica napus
Method in brief: as §1

[11] = tested on: soybean; assay: Test B pre/postemergence soybean; format: in vivo, Glycine max; details: for Plant response rating, Soybean: Postemergence
Method in brief: as §1

[12] = tested on: sugar beet; assay: Test B pre/postemergence sugar beet; format: in vivo, Beta vulgaris
Method in brief: as §1

[13] = tested on: velvetleaf; assay: Test B pre/postemergence velvetleaf; format: in vivo, Abutilon theophrasti; details: for Plant response rating, Velvetleaf: Postemergence
Method in brief: as §1

[14] = tested on: wheat; assay: Test B pre/postemergence wheat; format: in vivo, Triticum aestivum; details: for Plant response rating, Wheat: Postemergence
Method in brief: as §1

[15] = tested on: wild oat; assay: Test B pre/postemergence wild oat; format: in vivo, Avena fatua; details: for Plant response rating, Wild oats: Postemergence
Method in brief: as §1

[16] = tested on: purple nutsedge; assay: Test B pre/postemergence purple nutsedge; format: in vivo, Cyperus rotundus
Method in brief: as §1

[17] = tested on: rice; assay: Test B flood test rice; format: in vivo, Oryza sativa
Method in brief: (§2)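 Flood test on plants grown to the 2-leaf stage; treated plants kept in greenhouse twelve to sixteen days, then visually rated against controls on a 0 (no effect) to 10 (complete control) scale.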

[18] = tested on: smallflower flatsedge; assay: Test B flood test smallflower flatsedge; format: in vivo, Cyperus difformis
Method in brief: as §2

[19] = tested on: duck salad; assay: Test B flood test duck salad; format: in vivo, Heteranthera limosa
Method in brief: as §2

[20] = tested on: bamyardgrass; assay: Test B flood test barnyardgrass; format: in vivo, Echinochloa crus-galli
Method in brief: as §2

[21] = Postemergence, Rate 125 g/ha, scale 0 to 10, 0 is no effect, 10 is complete control
[22] = Preemergence, Rate 62 g/ha, scale 0 to 10 (0 no effect, 10 complete control)
[23] = Preemergence, Rate 125 g/ha, scale 0 to 10, 0 is no effect, 10 is complete control
[24] = Preemergence, Rate 500 g/ha, scale of 0 to 10 where 0 is no effect and 10 is complete control
[25] = Postemergence, Rate 62 g/ha, scale of 0 to 10, 0 is no effect, 10 is complete control
[26] = Postemergence, Rate 500 g/ha, scale of 0 to 10 where 0 is no effect and 10 is complete control
[27] = Rate 250 g/ha, Postemergence, scale of 0 to 10 where 0 is no effect and 10 is complete control
[28] = Rate 500 g/ha, scale of 0 to 10 where 0 is no effect and 10 is complete control
[29] = Rate 250 g/ha, scale of 0 to 10 where 0 is no effect and 10 is complete control
[30] = Rate 62 g/ha, flood test species, Pre-emergence, visual evaluation after twelve to sixteen days
[31] = Rate 125 g/ha, under heading Pre-emergence, flood test species, visual evaluation after twelve to sixteen days
[32] = Rate 250 g/ha, Pre-emergence (flood test species), scale 0 to 10, 0 is no effect, 10 is complete control
[33] = Rate 500 g/ha, Pre-emergence section of Table B, 0 to 10 scale (0 no effect, 10 complete control)

CC(C)N(C(=O)n1oc(=O)n(C[Si](C)(C)C)c1=O)c1ccccc1 [Compound 577]
9: Crabgrass plant response rating [6, 23] | Crabgrass plant response rating (0 to 10 scale) ([6]; Preemergence, Rate 250 g/ha) | Giant foxtail plant response rating (0 to 10 scale) ([7]; Preemergence, Rate 250 g/ha) | Morningglory plant response rating [8, 21] | Morningglory plant response rating [8, 24]
7: B. signalgrass plant response rating [3, 24] | Crabgrass plant response rating [6, 22] | Giant foxtail plant response rating [7, 22]
6: Blackgrass plant response rating [2, 24] | Morningglory plant response rating [8, 25]
3: Blackgrass plant response rating (0 to 10 scale) ([2]; Preemergence, Rate 250 g/ha) | Plant response rating, B. signalgrass [3, 26] | B. signalgrass plant response rating [3, 23] | Corn plant response rating [5, 24] | Plant response rating, Crabgrass [6, 26] | Plant response rating, Crabgrass [6, 27] | Plant response rating, Soybean [11, 29] | Velvetleaf plant response rating [13, 23] | Velvetleaf plant response rating (0 to 10 scale) ([13]; Preemergence, Rate 250 g/ha)
0: Bedstraw plant response rating [1, 22] | Bedstraw plant response rating [1, 23] | Bedstraw plant response rating (0 to 10 scale) ([1]; Preemergence, Rate 250 g/ha) | Bedstraw plant response rating [1, 24] | Blackgrass plant response rating [2, 25] | Blackgrass plant response rating [2, 21] | Plant response rating, Blackgrass [2, 26] | Blackgrass plant response rating [2, 22] | Blackgrass plant response rating [2, 23] | Plant response rating, Blackgrass [2, 27] | B. signalgrass plant response rating [3, 25] | B. signalgrass plant response rating [3, 21] | B. signalgrass plant response rating [3, 22] | Plant response rating, B. signalgrass [3, 27] | Cocklebur plant response rating [4, 25] | Cocklebur plant response rating [4, 21] | Cocklebur plant response rating [4, 22] | Cocklebur plant response rating [4, 23] | Cocklebur plant response rating (0 to 10 scale) ([4]; Preemergence, Rate 250 g/ha) | Cocklebur plant response rating [4, 24] | Plant response rating, Cocklebur [4, 27] | Corn plant response rating [5, 25] | Corn plant response rating [5, 21] | Plant response rating, Corn [5, 27] | Crabgrass plant response rating [6, 25] | Crabgrass plant response rating [6, 21] | Giant foxtail plant response rating [7, 25] | Morningglory plant response rating [8, 22] | Morningglory plant response rating [8, 23] | Plant response rating, Redroot pigweed [9, 28] | Redroot pigweed plant response rating [9, 22] | Redroot pigweed plant response rating [9, 23] | Redroot pigweed plant response rating (0 to 10 scale) ([9]; Preemergence, Rate 250 g/ha) | Redroot pigweed plant response rating [9, 24] | Plant response rating, Redroot pigweed [9, 29] | Rape plant response rating [10, 25] | Rape plant response rating [10, 21] | Plant response rating, Rape [10, 26] | Rape plant response rating [10, 22] | Rape plant response rating [10, 23] | Rape plant response rating (0 to 10 scale) ([10]; Preemergence, Rate 250 g/ha) | Rape plant response rating [10, 24] | Plant response rating, Rape [10, 27] | Soybean plant response rating [11, 22] | Soybean plant response rating [11, 23] | Soybean plant response rating (0 to 10 scale) ([11]; Preemergence, Rate 250 g/ha) | Soybean plant response rating [11, 24] | Sugarbeets plant response rating [12, 22] | Sugarbeets plant response rating [12, 23] | Sugarbeets plant response rating (0 to 10 scale) ([12]; Preemergence, Rate 250 g/ha) | Sugarbeets plant response rating [12, 24] | Plant response rating, Sugarbeets [12, 27] | Plant response rating, Velvetleaf [13, 28] | Plant response rating, Velvetleaf [13, 29] | Plant response rating, Wheat [14, 28] | Wheat plant response rating [14, 22] | Wheat plant response rating [14, 23] | Wheat plant response rating (0 to 10 scale) ([14]; Preemergence, Rate 250 g/ha) | Wheat plant response rating [14, 24] | Plant response rating, Wheat [14, 29] | Plant response rating, Wild oats [15, 28] | Wild oats plant response rating [15, 22] | Wild oats plant response rating [15, 23] | Wild oats plant response rating (0 to 10 scale) ([15]; Preemergence, Rate 250 g/ha) | Wild oats plant response rating [15, 24] | Plant response rating, Wild oats [15, 29] | Nutsedge plant response rating [16, 25] | Plant response rating, Nutsedge [16, 26] | Nutsedge plant response rating [16, 22] | Nutsedge plant response rating [16, 23] | Nutsedge plant response rating (0 to 10 scale) ([16]; Preemergence, Rate 250 g/ha) | Nutsedge plant response rating [16, 24] | Plant response rating, Rice (0 to 10 scale, 0 is no effect, 10 is complete control) [17, 30] | Rice plant response rating (0 to 10 scale, 0 is no effect, 10 is complete control) [17, 31] | Rice plant response rating [17, 32] | Rice plant response rating [17, 33] | Plant response rating, S. Flatsedge (0 to 10 scale, 0 is no effect, 10 is complete control) [18, 30] | S. Flatsedge plant response rating (0 to 10 scale, 0 is no effect, 10 is complete control) [18, 31] | S. Flatsedge plant response rating [18, 32] | S. Flatsedge plant response rating [18, 33] | Plant response rating, Ducksalad (0 to 10 scale, 0 is no effect, 10 is complete control) [19, 30] | Ducksalad plant response rating (0 to 10 scale, 0 is no effect, 10 is complete control) [19, 31] | Ducksalad plant response rating [19, 32] | Ducksalad plant response rating [19, 33] | Plant response rating, Barnyardgrass (0 to 10 scale, 0 is no effect, 10 is complete control) [20, 30] | Barnyardgrass plant response rating (0 to 10 scale, 0 is no effect, 10 is complete control) [20, 31] | Barnyardgrass plant response rating [20, 32] | Barnyardgrass plant response rating [20, 33]
8: Plant response rating, Giant foxtail [7, 26] | Giant foxtail plant response rating [7, 23] | Morningglory plant response rating (0 to 10 scale) ([8]; Preemergence, Rate 250 g/ha)
4: Bedstraw plant response rating [1, 21] | B. signalgrass plant response rating (0 to 10 scale, 0 is no effect, 10 is complete control) ([3]; Preemergence, Rate 250 g/ha) | Velvetleaf plant response rating [13, 22] | Velvetleaf plant response rating [13, 24]
10: Crabgrass plant response rating [6, 24] | Giant foxtail plant response rating [7, 24] | Plant response rating, Morningglory [8, 26] | Plant response rating, Morningglory [8, 27]
5: Plant response rating, Soybean [11, 28]
2: Plant response rating, Cocklebur [4, 26] | Plant response rating, Corn [5, 26] | Corn plant response rating [5, 22] | Corn plant response rating [5, 23] | Corn plant response rating (0 to 10 scale) ([5]; Preemergence, Rate 250 g/ha) | Giant foxtail plant response rating [7, 21] | Plant response rating, Giant foxtail [7, 27]
